Reference: patent publication US7655420B2, “Methods to increase or decrease bone density” (Celltech R & D, Inc., priority 2002, dated 2010)
“Also recorded” adds a separate entry of the source.

Tested on: caspase activity in hMSC cells
Test: apoptosis of hMSC cells by caspase activity (Homogeneous Caspase ELISA)
Type: cell-based, human
Conditions: for human sclerostin-induced increase in caspase activity, effect of caspase inhibitors: hMSC cells, 24 hrs, Roche ELISA; for caspase activity: hMSC in osteoblast-inducing media, 20 μg/ml sclerostin or other protein, 24 hours
Procedure: Human mesenchymal (hMSC) cells were plated in Osteoblast-inducing media (Biowhittaker's MSCGM medium supplemented with 100 nM dexamethasone, 50 μg/ml ascorbic acid, and 10 mM β-glycerophosphate) at a density of 10,000 cells/cm^2 in 96-well dishes.
For apoptosis assays, cells were treated with sclerostin or commercially available preparations of the BMP antagonists noggin, chordin, gremlin or twisted gastrulation (Tsg) for 24 hours prior to assay for caspase activity. In some experiments, cells were treated for various times with a partially purified preparation of baculovirus-expressed human sclerostin (0 to 30 μg/ml) or an equal volume of a protein preparation purified from Sf9 conditioned media (control) in the absence or presence of Calbiochem's caspase inhibitors. Cells were harvested and processed for apoptosis assays using the Homogeneous Caspase ELISA (Roche) or Cell Death (Histone-Associated DNA Fragmentation, Roche).

## CC(=O)N[C@@H](CC(=O)O)C(=O)N[C@@H](CCC(=O)O)C(=O)N[C@H](C(=O)N[C@H](C=O)CC(=O)O)C(C)C [Caspase-3, Inhibitor I, reference compound]
  human sclerostin-induced increase in caspase activity, effect of caspase inhibitors: blocked
Listed as Cas-3
  human sclerostin-induced increase in caspase activity, effect of caspase inhibitors: efficiently blocked
Listed as Caspase-3 inhibitor
  human sclerostin-induced increase in caspase activity, effect of caspase inhibitors: effectively blocked

## COC(=O)C[C@H](NC(=O)[C@H](C)NC(=O)[C@@H](NC(=O)[C@H](Cc1ccc(O)cc1)NC(=O)OCc1ccccc1)C(C)C)C(=O)CF [Caspase-1, Inhibitor VI, reference compound]
  human sclerostin-induced increase in caspase activity, effect of caspase inhibitors: blocked
Listed as Cas-1
  human sclerostin-induced increase in caspase activity, effect of caspase inhibitors: efficiently blocked
Listed as Caspase-1 inhibitor
  human sclerostin-induced increase in caspase activity, effect of caspase inhibitors: effectively blocked

B1: inactivated sclerostin: inactive preparation of sclerostin, as determined by lack of effects in other biological and biochemical assays (protein, UniProt Q9BQB4 24-213, looked up)
Sclerostin: QGWQAFKNDATEIIPELGEYPEPPPELENNKTMNRAENGGRPPHHPFETKDVSEYSCRELHFTRYVTDGPCRSAKPVTELVCSGQCGPARLLPNAIGRGKWWRPSGPDFRCIPDRYRAQRVQLLCPGGEAPRARKVRLVASCKCKRLTRFHNQSELKDFGTEAARPQKGRKPRPRARSAKANQAELENAY
modifications: inactivated preparation
  caspase activity: no significant effect
Listed as inactive preparation of sclerostin
  caspase activity: did not significantly affect

B2: gremlin: commercially available BMP antagonist (protein, UniProt O60565 25-184, looked up)
Gremlin-1: KKKGSQGAIPPPDKAQHNDSEQTQSPQQPGSRNRGRGQGRGTAMPGEEVLESSQEALHVTERKYLKRDWCKTQPLKQTIHEEGCNSRTIINRFCYGQCNSFYIPRHIRKEEGSFQSCSFCKPKKFTTMMVTLNCPELQPPTKKKRVTRVKQCRCISIDLD
  caspase activity: no increase; also recorded: no significant effect

B3: chordin: commercially available BMP antagonist (protein, UniProt Q9H2X0 27-955, looked up)
Chordin: AGPEPPVLPIRSEKEPLPVRGAAGCTFGGKVYALDETWHPDLGEPFGVMRCVLCACEAPQWGRRTRGPGRVSCKNIKPECPTPACGQPRQLPGHCCQTCPQERSSSERQPSGLSFEYPRDPEHRSYSDRGEPGAEERARGDGHTDFVALLTGPRSQAVARARVSLLRSSLRFSISYRRLDRPTRIRFSDSNGSVLFEHPAAPTQDGLVCGVWRAVPRLSLRLLRAEQLHVALVTLTHPSGEVWGPLIRHRALAAETFSAILTLEGPPQQGVGGITLLTLSDTEDSLHFLLLFRGLLEPRSGGLTQVPLRLQILHQGQLLRELQANVSAQEPGFAEVLPNLTVQEMDWLVLGELQMALEWAGRPGLRISGHIAARKSCDVLQSVLCGADALIPVQTGAAGSASLTLLGNGSLIYQVQVVGTSSEVVAMTLETKPQRRDQRTVLCHMAGLQPGGHTAVGICPGLGARGAHMLLQNELFLNVGTKDFPDGELRGHVAALPYCGHSARHDTLPVPLAGALVLPPVKSQAAGHAWLSLDTHCHLHYEVLLAGLGGSEQGTVTAHLLGPPGTPGPRRLLKGFYGSEAQGVVKDLEPELLRHLAKGMASLMITTKGSPRGELRGQVHIANQCEVGGLRLEAAGAEGVRALGAPDTASAAPPVVPGLPALAPAKPGGPGRPRDPNTCFFEGQQRPHGARWAPNYDPLCSLCTCQRRTVICDPVVCPPPSCPHPVQAPDQCCPVCPEKQDVRDLPGLPRSRDPGEGCYFDGDRSWRAAGTRWHPVVPPFGLIKCAVCTCKGGTGEVHCEKVQCPRLACAQPVRVNPTDCCKQCPVGSGAHPQLGDPMQADGPRGCRFAGQWFPESQSWHPSVPPFGEMSCITCRCGAGVPHCERDDCSLPLSCGSGKESRCCSRCTAHRRPAPETRTDPELEKEAEGS
  caspase activity: no increase; also recorded: no significant effect
